Assay results taken from patent US20140155397A1, “EMT SIGNATURES AND PREDICTIVE MARKERS AND METHOD OF USING THE SAME” (Board of Regents, priority 2011, published 2014).
pEC50, pIC50, pKi: −log10 of the molar value. Like-named read-outs stand apart in the source and are kept apart here.

Columns and labels:
[1] = molecular target: T1, AXL (Homo sapiens, UniProt P30530); assay: Inhibition of purified recombinant AXL kinase; format: biochemical
T1 sequence (P30530 26-894): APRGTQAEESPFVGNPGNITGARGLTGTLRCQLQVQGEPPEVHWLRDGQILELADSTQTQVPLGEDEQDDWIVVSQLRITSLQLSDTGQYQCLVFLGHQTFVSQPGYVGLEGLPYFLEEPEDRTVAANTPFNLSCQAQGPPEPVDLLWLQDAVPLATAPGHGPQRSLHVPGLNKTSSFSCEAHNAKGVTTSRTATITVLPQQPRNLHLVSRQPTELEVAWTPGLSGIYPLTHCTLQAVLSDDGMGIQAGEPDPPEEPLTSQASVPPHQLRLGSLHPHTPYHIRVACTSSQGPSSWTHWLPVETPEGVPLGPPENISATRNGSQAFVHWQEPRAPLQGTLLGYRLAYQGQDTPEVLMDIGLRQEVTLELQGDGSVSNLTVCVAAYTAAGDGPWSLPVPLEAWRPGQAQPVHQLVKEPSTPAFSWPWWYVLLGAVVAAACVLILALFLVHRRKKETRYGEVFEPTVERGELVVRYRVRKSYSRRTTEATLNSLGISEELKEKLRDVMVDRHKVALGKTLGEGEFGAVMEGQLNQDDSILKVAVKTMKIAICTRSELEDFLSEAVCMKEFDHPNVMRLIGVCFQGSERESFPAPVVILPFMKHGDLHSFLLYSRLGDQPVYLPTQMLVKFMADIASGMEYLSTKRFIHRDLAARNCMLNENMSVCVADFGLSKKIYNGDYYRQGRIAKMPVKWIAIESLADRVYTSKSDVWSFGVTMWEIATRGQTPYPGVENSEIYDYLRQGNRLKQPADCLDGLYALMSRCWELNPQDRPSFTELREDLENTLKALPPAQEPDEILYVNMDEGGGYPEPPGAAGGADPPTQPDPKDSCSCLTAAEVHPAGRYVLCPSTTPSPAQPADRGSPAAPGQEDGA
Text: (§1) Purified recombinant AXL kinase was used to screen a library of structures with appropriate drug-like scaffolds to identify potential inhibitors. Hits from the screen were confirmed and r analyzed by selection criteria including Lipinski rules. One pyrrolopyrimidine-based compound was selected for structure-activity relationship efforts. Optimization of this scaffold and subsequent evaluation led to the generation of compound SG1-7079 as the lead candidate inhibitor (FIG. 10). […] SGI-7079 was screened against a panel of protein kinases to determine both selectivity and biochemical potency.

[2] = molecular target: T2, MER (Homo sapiens, UniProt Q12866); assay: Protein kinase panel; format: biochemical
T2 sequence (Q12866 21-999): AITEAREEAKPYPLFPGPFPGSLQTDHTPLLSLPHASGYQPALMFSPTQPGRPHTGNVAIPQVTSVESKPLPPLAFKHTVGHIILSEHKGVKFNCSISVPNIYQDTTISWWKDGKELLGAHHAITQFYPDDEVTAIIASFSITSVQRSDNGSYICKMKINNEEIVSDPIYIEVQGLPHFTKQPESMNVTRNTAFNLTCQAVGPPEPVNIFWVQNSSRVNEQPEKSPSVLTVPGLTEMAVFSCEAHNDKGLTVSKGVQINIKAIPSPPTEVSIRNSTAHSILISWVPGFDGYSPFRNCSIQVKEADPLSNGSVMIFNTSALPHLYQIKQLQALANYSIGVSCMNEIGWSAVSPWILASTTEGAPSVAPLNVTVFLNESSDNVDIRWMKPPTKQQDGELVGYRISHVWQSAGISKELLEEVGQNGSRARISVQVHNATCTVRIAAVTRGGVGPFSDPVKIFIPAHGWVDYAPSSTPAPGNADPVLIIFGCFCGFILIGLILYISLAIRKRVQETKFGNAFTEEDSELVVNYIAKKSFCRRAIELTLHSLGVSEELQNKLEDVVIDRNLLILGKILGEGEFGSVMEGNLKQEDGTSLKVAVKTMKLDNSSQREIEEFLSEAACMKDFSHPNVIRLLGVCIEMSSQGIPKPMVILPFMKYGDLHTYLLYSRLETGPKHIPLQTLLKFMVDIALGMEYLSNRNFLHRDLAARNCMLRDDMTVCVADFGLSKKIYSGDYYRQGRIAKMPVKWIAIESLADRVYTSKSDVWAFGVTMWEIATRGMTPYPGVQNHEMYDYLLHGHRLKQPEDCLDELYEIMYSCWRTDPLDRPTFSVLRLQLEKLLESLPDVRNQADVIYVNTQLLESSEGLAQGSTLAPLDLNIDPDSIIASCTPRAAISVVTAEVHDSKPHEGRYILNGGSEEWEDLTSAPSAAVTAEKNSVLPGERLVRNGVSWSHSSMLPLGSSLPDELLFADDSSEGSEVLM
Text: as §1

[3] = molecular target: Syk (Homo sapiens, UniProt P43405); assay: Protein kinase panel; format: biochemical
Text: as §1

[4] = test system: NSCLC cell lines; assay: Drug sensitivity (growth inhibition, MTS assay) of epithelial versus mesenchymal NSCLC cell lines; format: cell-based
Text: (§2) Average values were used for analysis as described. […] Chou T. C., et al., Quantitative Analysis of Dose-Effect Relationships: The Combined Effects of Multiple Drugs or Enzyme Inhibitors. Adv Enzyme Regul.
The EMT signature was derived in 54 DNA fingerprinted NSCLC cell lines profiled on Affymetrix U133A, B, and Plus2.0 arrays and tested on the Illumina WGv2 and WGv3 platforms and in an independent set of head and neck cancer lines (HNC). E-cadherin and other protein levels were quantified by reverse phase protein array and correlated with the first principal component of the EMT signature. IC50s were determined for NSCLC cell lines by MTS assay. Response to erlotinib was evaluated in patients treated in the BATTLE clinical trial using eight-week disease […] and progression free survival.

[5] = test system: A549; assay: Proliferation, CellTiter-Glo Luminescent Cell Viability; format: cell-based; details: single agent
Text: as §2

[6] = test system: Calu-1; assay: as above; format: cell-based; details: single agent
Text: as §2

[7] = test system: H1299; assay: as above; format: cell-based; details: single agent
Text: as §2

[8] = test system: H157; assay: as above; format: cell-based; details: single agent
Text: as §2

[9] = test system: H2882; assay: as above; format: cell-based; details: single agent
Text: as §2

[10] = test system: H460; assay: as above; format: cell-based; details: single agent
Text: as §2

[11] = test system: Cells expressing high levels of Axl; assay: Proliferation of six mesenchymal cell lines expressing high levels of Axl (summary); format: cell-based; details: single agent
Text: as §2

[12] = molecular target: T1, AXL; assay: Gas6 ligand-induced tyrosine phosphorylation of human AXL expressed in HEK293T cells; format: cell-based; set-up: expressed in transfected cells; host or cells: HEK293T; details: read-out: EC50, inhibition of Gas6 ligand-induced tyrosine phosphorylation of AXL

`Cc1c[nH]c2nc(Nc3ccc(N4CCN(C)CC4)c(F)c3)nc(-c3cccc(CC#N)c3)c12` [SGI-7079] was tested, and the pKi [1] was 8.24, the “Inhibition of MER” value [2] was “similarly as AXL” and the “Inhibition of Syk” value [3] was “potent, low nM inhibition”. The “Sensitivity of mesenchymal cells” value ([4]; SGI-7079 versus erlotinib, p<0.001 by Wilcoxon test) was “relatively sensitive”, the “Fold more sensitive, mesenchymal versus epithelial cells” value ([4]; p-value 0.17, not statistically significant) was 1.3 fold and the pIC50 [5] was 6.04. It also gave a pIC50 [6] of 5.61, a pIC50 [7] of 5.76 and a pIC50 [8] of 6.13. It also gave a pIC50 [9] of 5.37, a pIC50 [10] of 5.70 and a pIC50 ([11]; read-out: IC50 range across cell lines) of 5.37 to 6.13. The pIC50 ([11]; read-out: Mean IC50 across cell lines) was 5.89 and the pEC50 [12] was 7.00.
